# BindingDB's records for patent US12391687 (Shanghai Ennovabio Pharmaceuticals, 2025)
# Tests used:
# [1] = target: High affinity nerve growth factor receptor (Homo sapiens, UniProt P04629); test: In Vitro Activity Test on TRKA, TRKB, TRKC Kinase
# Experimental: (§1) Table 1: Experimental MethodThe tested compounds were subjected to 3-fold serial dilution to reach a final concentration of 1 μM to 0.05 nM (10 concentrations), duplicates for each concentration; and the DMSO concentration in the detection reaction was 1%.TRKA Enzyme Reaction:0.2 ng/μL TRKA protein kinase, 1 μM TK Substrate-biotin polypeptide substrate, 14.68 μM ATP, 1×enzymatic buffer, 5 mM MgCl2, and 1 mM DTT. The assay plate was White Proxiplate384-Plus plate (PerkinElmer), and the reaction was incubated at room temperature for 40 min, and the assay volume was 10 μL.TRKB Enzyme Reaction:0.037 ng/μL TRKB protein kinase, 1 μM TK Substrate-biotin polypeptide substrate, 4.77 μM ATP, 1× enzymatic buffer, 5 mM MgCl2, 1 mM MnCl2 and 1 mM DTT. The assay plate was White Proxiplate 384-Plus plate (PerkinElmer), the reaction was incubated at room temperature for 50 min, and the assay volume was 10 μL.TRKC Enzyme Reaction:0.037 ng/μL TRKC protein kinase, 1 μM TK Substrate-biotin polypeptide substrate, 25.64 μM ATP, 1× enzymatic buffer, 5 mM MgCl2, and 1 mM DTT. The detection plate was White Proxiplate 384-Plus plate (PerkinElmer), the reaction was incubated at room temperature for 40 min, and the assay volume was 10 μL.Detection Steps:10 μL of detection reagent (containing 0.125 μM SA-XL665 and 5 μL 1×TK-Antibody) was added to the plate and incubated overnight at room temperature. Synergy Neo 2 was used to read the plate.
# [2] = target: NT-3 growth factor receptor (Homo sapiens, UniProt Q16288); test: In Vitro Activity Test on TRKA, TRKB, TRKC Kinase
# NT-3 growth factor receptor, sequence (Q16288 whole entry): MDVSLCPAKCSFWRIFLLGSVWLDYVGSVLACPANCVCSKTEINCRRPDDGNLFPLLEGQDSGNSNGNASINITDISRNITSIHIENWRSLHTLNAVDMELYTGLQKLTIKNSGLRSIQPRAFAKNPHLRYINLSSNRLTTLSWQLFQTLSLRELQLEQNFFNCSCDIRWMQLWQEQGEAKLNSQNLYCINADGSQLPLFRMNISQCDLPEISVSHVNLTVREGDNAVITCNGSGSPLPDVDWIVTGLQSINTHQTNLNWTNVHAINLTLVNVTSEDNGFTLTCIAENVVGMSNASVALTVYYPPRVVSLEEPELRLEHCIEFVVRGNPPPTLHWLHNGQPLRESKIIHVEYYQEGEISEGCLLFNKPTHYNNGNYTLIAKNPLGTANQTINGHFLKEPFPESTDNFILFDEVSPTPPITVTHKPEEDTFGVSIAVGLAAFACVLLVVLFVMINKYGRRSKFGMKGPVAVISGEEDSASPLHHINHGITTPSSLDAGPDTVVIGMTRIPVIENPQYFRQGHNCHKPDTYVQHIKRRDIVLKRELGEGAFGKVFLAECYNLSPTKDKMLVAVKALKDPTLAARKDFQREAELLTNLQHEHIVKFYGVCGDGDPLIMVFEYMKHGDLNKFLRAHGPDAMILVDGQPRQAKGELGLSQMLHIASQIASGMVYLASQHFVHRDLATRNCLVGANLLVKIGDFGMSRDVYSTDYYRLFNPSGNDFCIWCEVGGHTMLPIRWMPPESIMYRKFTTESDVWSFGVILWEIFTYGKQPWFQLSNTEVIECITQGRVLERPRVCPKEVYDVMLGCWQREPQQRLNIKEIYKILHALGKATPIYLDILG
# Experimental: as §1
# [3] = target: BDNF/NT-3 growth factors receptor (Homo sapiens, UniProt Q16620); test: In Vitro Activity Test on TRKA, TRKB, TRKC Kinase
# BDNF/NT-3 growth factors receptor, sequence (Q16620 whole entry): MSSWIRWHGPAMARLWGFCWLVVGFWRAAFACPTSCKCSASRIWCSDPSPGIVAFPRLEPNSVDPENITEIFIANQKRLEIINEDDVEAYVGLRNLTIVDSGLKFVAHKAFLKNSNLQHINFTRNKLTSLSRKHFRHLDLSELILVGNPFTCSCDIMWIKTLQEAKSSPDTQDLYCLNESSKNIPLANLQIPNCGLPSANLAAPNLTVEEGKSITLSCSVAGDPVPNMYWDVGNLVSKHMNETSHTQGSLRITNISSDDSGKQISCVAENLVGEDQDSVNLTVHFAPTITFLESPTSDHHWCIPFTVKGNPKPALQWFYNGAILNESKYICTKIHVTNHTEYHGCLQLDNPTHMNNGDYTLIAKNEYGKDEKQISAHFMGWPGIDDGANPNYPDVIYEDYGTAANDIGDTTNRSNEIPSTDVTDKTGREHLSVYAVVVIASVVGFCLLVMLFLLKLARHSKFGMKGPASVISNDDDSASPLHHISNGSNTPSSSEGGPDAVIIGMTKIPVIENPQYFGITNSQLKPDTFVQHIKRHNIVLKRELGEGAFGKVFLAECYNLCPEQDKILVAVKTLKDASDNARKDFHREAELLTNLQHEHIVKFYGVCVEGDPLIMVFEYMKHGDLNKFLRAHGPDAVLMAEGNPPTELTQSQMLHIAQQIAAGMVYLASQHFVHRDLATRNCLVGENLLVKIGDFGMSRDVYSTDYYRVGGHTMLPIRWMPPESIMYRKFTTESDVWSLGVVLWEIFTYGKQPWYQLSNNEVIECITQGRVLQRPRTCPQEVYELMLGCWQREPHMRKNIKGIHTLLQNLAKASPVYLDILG
# Experimental: as §1
# [4] = target: High affinity nerve growth factor receptor [G595R] (Homo sapiens, UniProt P04629, G595R); test: In Vitro Activity Test on Mutant TRKA (G595R)
# High affinity nerve growth factor receptor [G595R], sequence (P04629 33-796 G595R limits assumed): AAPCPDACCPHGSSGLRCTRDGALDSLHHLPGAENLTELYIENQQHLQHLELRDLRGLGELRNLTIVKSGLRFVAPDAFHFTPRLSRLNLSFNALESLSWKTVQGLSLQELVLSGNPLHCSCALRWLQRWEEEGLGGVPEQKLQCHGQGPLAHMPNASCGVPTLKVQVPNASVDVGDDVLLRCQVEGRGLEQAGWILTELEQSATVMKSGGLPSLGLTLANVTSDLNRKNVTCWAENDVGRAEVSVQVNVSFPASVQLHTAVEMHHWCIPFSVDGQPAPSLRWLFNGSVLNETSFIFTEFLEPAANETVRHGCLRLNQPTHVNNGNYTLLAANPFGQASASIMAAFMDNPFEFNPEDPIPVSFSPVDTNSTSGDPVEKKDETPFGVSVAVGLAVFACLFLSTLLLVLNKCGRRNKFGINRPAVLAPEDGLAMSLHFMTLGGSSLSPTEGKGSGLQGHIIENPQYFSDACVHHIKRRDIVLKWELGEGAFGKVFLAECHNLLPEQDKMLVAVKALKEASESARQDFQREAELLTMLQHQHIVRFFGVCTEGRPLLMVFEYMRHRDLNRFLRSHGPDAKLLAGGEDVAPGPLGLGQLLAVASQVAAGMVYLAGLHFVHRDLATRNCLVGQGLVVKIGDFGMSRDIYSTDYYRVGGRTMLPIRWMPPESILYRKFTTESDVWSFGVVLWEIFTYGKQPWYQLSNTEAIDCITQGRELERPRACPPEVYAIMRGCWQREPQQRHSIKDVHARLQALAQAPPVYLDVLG
# Experimental: Table 3: Experimental MaterialsThe recombinant human TRKA (G595R), TRKA (G667C) and TRKC (G623R) proteins were purchased from SignalChem. HTRF kinEASE TK kit was purchased from Cisbio Bioassays. Synergy Neo 2 of Biotek was used to read the plate. TRKA (G595R) Enzyme Reaction:0.12 ng/μL TRKA (G595R) kinase, 1 μM TK Substrate-biotin polypeptide substrate, 4.5 μM ATP, 1× enzymatic buffer, 5 mM MgCl2, and 1 mM DTT. The assay plate was White Proxiplate384-Plus plate (PerkinElmer), and the reaction was incubated at room temperature for 30 min, and the assay volume was 10 μL. Detection Steps:10 μL of detection reagent (containing 0.125 μM SA-XL665 and 5 μL 1×TK-Antibody) was added to the plate and incubated overnight at room temperature, and Synergy Neo 2 was used to read the plate.
# High affinity nerve growth factor receptor, sequence (P04629 whole entry): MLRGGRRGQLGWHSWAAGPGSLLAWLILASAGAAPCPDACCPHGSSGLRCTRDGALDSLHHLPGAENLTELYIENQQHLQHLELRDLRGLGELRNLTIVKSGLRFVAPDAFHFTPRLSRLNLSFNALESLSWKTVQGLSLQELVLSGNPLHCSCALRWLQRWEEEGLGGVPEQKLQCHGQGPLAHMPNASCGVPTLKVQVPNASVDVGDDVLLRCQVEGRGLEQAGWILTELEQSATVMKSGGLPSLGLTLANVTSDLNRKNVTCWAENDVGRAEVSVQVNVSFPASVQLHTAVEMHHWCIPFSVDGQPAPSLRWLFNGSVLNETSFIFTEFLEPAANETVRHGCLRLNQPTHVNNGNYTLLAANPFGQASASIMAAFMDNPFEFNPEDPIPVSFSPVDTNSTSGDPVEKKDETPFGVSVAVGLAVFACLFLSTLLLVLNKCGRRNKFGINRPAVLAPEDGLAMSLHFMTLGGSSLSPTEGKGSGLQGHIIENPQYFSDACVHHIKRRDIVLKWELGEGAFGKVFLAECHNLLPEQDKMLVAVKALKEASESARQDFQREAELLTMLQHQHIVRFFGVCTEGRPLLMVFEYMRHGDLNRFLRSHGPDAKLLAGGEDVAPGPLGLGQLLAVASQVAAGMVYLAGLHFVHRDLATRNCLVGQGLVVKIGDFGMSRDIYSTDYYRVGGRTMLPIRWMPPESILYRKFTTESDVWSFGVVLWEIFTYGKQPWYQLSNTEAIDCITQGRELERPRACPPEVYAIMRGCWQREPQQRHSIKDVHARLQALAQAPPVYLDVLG
SMILES,IC50 [1],IC50 [2],IC50 [3],IC50 [4]
"CNC(=O)c1cnc2[nH]nc(N3CCC[C@@H]3c3cc(F)ccc3F)c2c1 [US12391687, Example 7]",< 10 nM,< 10 nM,< 10 nM,–
"O=C(Nc1cnc2[nH]nc(N3C[C@@H](F)C[C@@H]3c3cc(F)ccc3F)c2c1)c1ccc(N2CC[C@H](O)C2)nc1 [US12391687, Example 11]",–,< 10 nM,< 1 nM,< 10 nM
"NC(=O)CCNC(=O)c1cnc2[nH]nc(N3CCC[C@@H]3c3cc(F)ccc3F)c2c1 [US12391687, Example 15]",< 10 nM,< 10 nM,< 10 nM,–
"Fc1ccc(F)c([C@H]2C[C@H](F)CN2c2n[nH]c3ncc(-c4cnn(C5CNC5)c4)cc23)c1 [US12391687, Example 26]",< 1 nM,< 1 nM,< 1 nM,–
"CC(C)OCc1nnc(-c2cnc3[nH]nc(N4C[C@@H](F)C[C@@H]4c4cc(F)ccc4F)c3c2)o1 [US12391687, Example 42]",< 1 nM,< 1 nM,< 1 nM,–
